Assay [1] concerns class B MBLs (IMP-1, VIM-1, VIM-2, NDM-1 and L1). Set-up: method as in PMID 27401561. The note with it: across the same range of inhibitor concentrations as vaborbactam; cited from earlier work.
Assay [2] has as its system CTX-M15. Set-up: method as in PMID 28115348. The note with it: read-out: Cyclic Boronate (CB2) IC50; cited from earlier work.
The target of assay [3] is T1, AmpC (Pseudomonas aeruginosa, UniProt P24735).
T1 construct: made in house; host or cells: E. coli
The note with it: read-out: Cyclic Boronate (CB2) IC50; cited from earlier work.

Assay [4] deals with T2, L1 (Stenotrophomonas maltophilia, UniProt P52700).
T2 construct: made in house; host or cells: E. coli
The note with it: cited from earlier work.

The target of assay [5] is T3, CphA (Aeromonas hydrophila, UniProt P26918).
T3 construct: made in house; host or cells: E. coli
The note with it: cited from earlier work.

A further assay has as its target KPC-2 carbapenemase. Set-up: method as in PMID 25782055. The note with it: read-out: Vaborbactam Ki; KPC-2, nitrocefin assay; cited from earlier work.
The target of the next assay is cephalosporinase P99. On the set-up: method as in PMID 25782055. The note with it: read-out: Vaborbactam Ki; P99, nitrocefin assay; cited from earlier work.
The target of another assay is CMY-2. On the set-up: method as in PMID 25782055. The note with it: read-out: Vaborbactam Ki; CMY-2, nitrocefin assay; cited from earlier work.
A further assay addresses T4, IMP-1 (Serratia marcescens, UniProt P52699).
T4 construct: made in house; host or cells: E. coli
Nature of the assay: β-lactamase inhibition, FC-5 fluorogenic cephalosporin assay. Type of assay: biochemical. The note with it: IMP-1, subclass B1. The protocol: (§1) Recombinant MBLs and SBLs were produced in E. coli and purified following reported procedures^1-6 and were all >95% pure (as judged by SDS-PAGE and MS analyses). Note the TEM enzyme used in this study is named TEM-116^7, in previous studies this has been assigned incorrectly as TEM-1^3, 5, 8-14. […] Activity was assayed by monitoring the release of a fluorophore following the enzymatic breakdown of the cephalosporin FC-5^15, with the exception of the class B2 MBLs, where the hydrolysis of meropenem was used as a readout^16. FC-5 assays were conducted in clear bottomed 384 black well microplates (Greiner) and the initial rate of reaction was assessed by monitoring the fluorescence intensity (λex = 380 nm and λem = 460 nm) using a PHERAstar FS (BMG LabTech) plate reader^15. For the B2 MBLs, assays were carried out in 96 well UV star microplates (Greiner) and UV absorbance at λ = 300 nm monitored. Initial rates of reaction were determined and dose-response analyses conducted in GraphPad Prism^15.

The target in assay [6] is T2, L1. The assay is described as above. The note with it: L1, subclass B3. Type of assay: biochemical. The protocol: as §1
Assay [7] deals with T1, AmpC. The assay is described as above. The class given is biochemical. The note with it: class C. The protocol: as §1
A further assay addresses T5, OXA-10 (Pseudomonas aeruginosa, UniProt P14489).
T5 construct: made in house; host or cells: E. coli
Described as above. Type of assay: biochemical. The note with it: for IC50: OXA-10, class D. The protocol: as §1

A further assay concerns the target T6, VIM-1 (Pseudomonas aeruginosa, UniProt A0A0F7KYQ8).
T6 construct: made in house; host or cells: E. coli
Described as above. Type of assay: biochemical. The note with it: VIM-1, subclass B1. The protocol:
as §1

The target of the next assay is T7, KPC-2 (Klebsiella pneumoniae, UniProt Q9F663).
T7 construct: made in house; host or cells: E. coli
Described as above. The note with it: KPC-2, class A. The class given is biochemical. The protocol:
as §1

The target of the next assay is T8, NDM-1 (Klebsiella pneumoniae, UniProt C7C422).
T8 construct: made in house; host or cells: E. coli
The assay is described as above. Type of assay: biochemical. The note with it: NDM-1, subclass B1. The protocol: as §1

Another assay concerns the target T9, VIM-2 (Escherichia coli, UniProt Q5U7L7).
T9 construct: made in house; host or cells: E. coli
The description is as above. Type of assay: biochemical. The note with it: VIM-2, subclass B1. The protocol: as §1

The target in assay [8] is CTX-M15. Set-up: method as in PMID 25782055. The note with it: read-out: Vaborbactam Ki; CTX-M15, nitrocefin assay; cited from earlier work.
A further assay addresses T10, OXA-48 (Klebsiella pneumoniae, UniProt Q6XEC0).
T10 construct: made in house; host or cells: E. coli
Nature of the assay: β-lactamase inhibition, FC-5 fluorogenic cephalosporin assay. The class given is biochemical. The note with it: Vaborbactam IC50, OXA-48, class D, 100 mM NaHCO3.

The target in another assay is SHV-12. The note with it: read-out: Vaborbactam Ki; SHV-12, nitrocefin assay; cited from earlier work.
Assay [9] deals with T3, CphA. Nature of the assay: β-lactamase inhibition, meropenem hydrolysis UV assay. Type of assay: biochemical. The note with it: subclass B2. The protocol:
as §1

Structures are written as SMILES. Entries after “also recorded” stand apart in the source; their conditions may differ. Where two headings read alike, the source gives them in different places.

T2 sequence (P52700 34-290): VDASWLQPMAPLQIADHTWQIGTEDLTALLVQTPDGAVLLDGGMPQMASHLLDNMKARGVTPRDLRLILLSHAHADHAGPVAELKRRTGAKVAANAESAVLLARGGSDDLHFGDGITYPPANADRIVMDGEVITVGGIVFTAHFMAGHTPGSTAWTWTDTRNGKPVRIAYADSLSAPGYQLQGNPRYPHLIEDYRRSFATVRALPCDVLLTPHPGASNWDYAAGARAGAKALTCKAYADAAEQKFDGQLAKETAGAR
T3 sequence (P26918 28-254): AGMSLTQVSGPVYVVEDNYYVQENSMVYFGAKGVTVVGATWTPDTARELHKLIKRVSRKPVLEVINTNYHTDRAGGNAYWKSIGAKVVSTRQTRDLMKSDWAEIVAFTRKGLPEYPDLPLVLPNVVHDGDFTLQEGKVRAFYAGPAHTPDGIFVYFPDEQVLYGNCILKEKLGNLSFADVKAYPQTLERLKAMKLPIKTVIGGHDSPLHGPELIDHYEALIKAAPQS
T5 sequence (P14489 20-266, species assumed): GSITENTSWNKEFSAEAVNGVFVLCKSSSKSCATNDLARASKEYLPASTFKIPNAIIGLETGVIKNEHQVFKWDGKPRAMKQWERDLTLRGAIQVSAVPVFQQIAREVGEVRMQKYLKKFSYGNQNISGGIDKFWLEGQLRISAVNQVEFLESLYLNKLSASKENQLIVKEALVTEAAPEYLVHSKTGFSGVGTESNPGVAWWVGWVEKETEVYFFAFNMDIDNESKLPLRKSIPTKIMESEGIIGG
T1 sequence (P24735 27-397): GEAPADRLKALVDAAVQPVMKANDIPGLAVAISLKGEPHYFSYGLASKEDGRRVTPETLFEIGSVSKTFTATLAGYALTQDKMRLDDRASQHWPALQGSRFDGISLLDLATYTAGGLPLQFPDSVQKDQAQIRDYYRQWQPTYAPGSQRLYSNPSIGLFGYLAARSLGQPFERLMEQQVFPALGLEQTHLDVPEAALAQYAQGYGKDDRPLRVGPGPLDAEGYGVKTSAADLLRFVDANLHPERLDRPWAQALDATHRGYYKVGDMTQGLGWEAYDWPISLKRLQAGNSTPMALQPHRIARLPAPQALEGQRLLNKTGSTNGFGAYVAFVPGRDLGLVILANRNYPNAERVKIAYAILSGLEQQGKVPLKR
T7 sequence (Q9F663 25-293, looked up, species assumed): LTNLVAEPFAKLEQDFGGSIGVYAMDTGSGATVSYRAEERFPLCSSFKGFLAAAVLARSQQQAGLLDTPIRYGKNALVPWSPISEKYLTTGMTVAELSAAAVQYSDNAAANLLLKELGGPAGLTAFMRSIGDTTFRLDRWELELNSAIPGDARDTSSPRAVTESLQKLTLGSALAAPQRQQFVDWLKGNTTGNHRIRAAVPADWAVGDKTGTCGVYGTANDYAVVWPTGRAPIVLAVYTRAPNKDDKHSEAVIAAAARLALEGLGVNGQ
T8 sequence (C7C422 29-270, looked up, species assumed): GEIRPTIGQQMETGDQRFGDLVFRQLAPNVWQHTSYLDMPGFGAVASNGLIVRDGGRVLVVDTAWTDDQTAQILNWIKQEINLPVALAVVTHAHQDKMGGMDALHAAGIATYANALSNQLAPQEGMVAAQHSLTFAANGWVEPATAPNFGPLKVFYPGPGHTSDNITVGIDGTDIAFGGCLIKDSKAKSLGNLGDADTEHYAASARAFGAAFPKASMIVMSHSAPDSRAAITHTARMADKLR
T4 sequence (P52699 19-246, looked up, species assumed): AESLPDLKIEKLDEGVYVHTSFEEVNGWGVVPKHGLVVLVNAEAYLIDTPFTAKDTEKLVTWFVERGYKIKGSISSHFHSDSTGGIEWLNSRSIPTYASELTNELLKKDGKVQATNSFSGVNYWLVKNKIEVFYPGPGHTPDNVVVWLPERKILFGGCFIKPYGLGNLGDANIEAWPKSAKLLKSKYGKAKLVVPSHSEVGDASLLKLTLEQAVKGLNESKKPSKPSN
T10 sequence (Q6XEC0 23-265, looked up, species assumed): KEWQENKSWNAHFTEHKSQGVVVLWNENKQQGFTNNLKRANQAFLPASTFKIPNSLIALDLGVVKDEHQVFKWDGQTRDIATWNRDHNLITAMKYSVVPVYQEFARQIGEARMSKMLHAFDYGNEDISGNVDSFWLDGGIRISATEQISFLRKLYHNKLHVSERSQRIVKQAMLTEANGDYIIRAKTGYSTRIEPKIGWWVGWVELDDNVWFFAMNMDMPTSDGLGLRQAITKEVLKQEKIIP

As to `NC(=O)[C@@H]1CC[C@@H]2CN1C(=O)N2OS(=O)(=O)O` [avibactam], the “inhibition of MBLs” value in [1] is “does not show any inhibition”.

Take `NCc1ccc(C(=O)N[C@H]2Cc3cccc(C(=O)O)c3OB2O)cc1` [CB2]: the IC50 was 0.013 µM with CTX-M15 [2]; 0.12 µM on AmpC [3]; above 100 µM on CphA [5] (read-out: Cyclic Boronate (CB2) IC50, CphA). The “Cyclic Boronate (CB2) IC50” value on L1 [4] was “do not exhibit inhibitory activity; also recorded: Not inhibited[19]”. In addition, the “inhibitory activity against B2 CphA” value at CphA [5] (CphA (mono Zn(II))) is on record as “do not exhibit inhibitory activity”.

On to `O=C(O)C[C@@H]1CC[C@H](NC(=O)Cc2cccs2)B(O)O1` [Vaborbactam, vaborbactam], for which the Ki at KPC-2 carbapenemase was 0.069 µM; at cephalosporinase P99 it was 0.053 µM; at CMY-2, 0.099 µM; at CTX-M15 [8] it was 0.044 µM; on SHV-12 it was 0.029 µM. For the same compound, the IC50 is 126 µM at IMP-1; 336 µM against L1 [6]; 5 µM against AmpC [7]; above 400 µM against OXA-10 (without NaHCO3); above 400 µM at OXA-10 (read-out: Vaborbactam IC50, 100 mM NaHCO3); 398 µM at VIM-1. Besides, the IC50 worked out at 0.09 µM on KPC-2; 631 µM against NDM-1; 316 µM against VIM-2; 32 µM on OXA-48; 631 µM against CphA [9]. Moreover, on OXA-10 (read-out: inhibition of OXA-10 at the highest tested concentration), the inhibition at 400 µM is below 50%.

These data come from article PMC6593178 (Bioorganic & Medicinal Chemistry Letters, 2019).
